Test results reported in PubChem BioAssay AID248 (DTP/NCI, 2004).
Where “and” joins values, the source holds several entries; their conditions need not be identical. Identical values can stand only once. Inconclusive results and toxic doses are left out. Rule as the data show it: active = T/C of 150% or more; inactive = T/C below 125%.

Test system: L1210 leukemia ip in BDF1 mice, survival T/C
Experiment: NCI In Vivo Anticancer Drug Screen. Data for tumor model L1210 Leukemia (intraperitoneal) in B6D2F1 (BDF1) mice
Conditions: endpoint: mean survival time, higher = longer survival
Summary of the method: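 Read-out is survival time, reported as the treated-group measurement over the vehicle-control measurement.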

[1] = dose: 100.0 mg/kg/injection, schedule: Q01DX001 (ip), vehicle: saline
[2] = dose: 200.0 mg/kg/injection, schedule: Q01DX001 (ip), vehicle: saline
[3] = dose: 400.0 mg/kg/injection, schedule: Q01DX001 (ip), vehicle: saline
[4] = dose: 100.0 mg/kg/injection, schedule: Q04DX003 (ip), vehicle: saline with Tween-80
[5] = dose: 200.0 mg/kg/injection, schedule: Q04DX003 (ip), vehicle: saline with Tween-80
[6] = dose: 400.0 mg/kg/injection, schedule: Q04DX003 (ip), vehicle: saline with Tween-80
[7] = dose: 400.0 mg/kg/injection, schedule: Q01DX001 (ip), vehicle: carboxymethylcellulose (CMC)
[8] = dose: 100.0 mg/kg/injection, schedule: Q04DX003 (ip), vehicle: Klucel (hydroxypropylcellulose) (HPC)
[9] = dose: 200.0 mg/kg/injection, schedule: Q04DX003 (ip), vehicle: Klucel (hydroxypropylcellulose) (HPC)
[10] = dose: 400.0 mg/kg/injection, schedule: Q04DX003 (ip), vehicle: Klucel (hydroxypropylcellulose) (HPC)
[11] = dose: 75.0 mg/kg/injection, schedule: Q01DX009 (ip), vehicle: saline
[12] = dose: 150.0 mg/kg/injection, schedule: Q01DX009 (ip), vehicle: saline
[13] = dose: 300.0 mg/kg/injection, schedule: Q01DX009 (ip), vehicle: saline
[14] = dose: 100.0 mg/kg/injection, schedule: Q04DX002 (ip), vehicle: Klucel (hydroxypropylcellulose) (HPC)
[15] = dose: 200.0 mg/kg/injection, schedule: Q04DX002 (ip), vehicle: Klucel (hydroxypropylcellulose) (HPC)
[16] = dose: 400.0 mg/kg/injection, schedule: Q04DX002 (ip), vehicle: Klucel (hydroxypropylcellulose) (HPC)
[17] = dose: 100.0 mg/kg/injection, schedule: Q01DX009 (ip), vehicle: saline

Measured: T/C

Cc1nc(CCl)no1
inactive: dose: 100.0 mg/kg/injection, schedule: Q04DX002 (ip), vehicle: saline with Tween-80 104 % of control | dose: 200.0 mg/kg/injection, schedule: Q04DX002 (ip), vehicle: saline with Tween-80 95 % of control

CCCCCCCCCCCCCCCC1=C(O)c2ccccc2C(=O)C1=O
inactive: [1] 112 % of control | [2] 101 % of control | [3] 103 % of control

CCOP(=O)(OCC)/C(C#N)=C\c1ccc(OC)c(OC)c1
inactive: [4] 97 % of control | [5] 92 % of control | [6] 92 % of control

Cc1ccc(N=Nc2ccc(C)cc2NC(=O)Nc2cc([N+](=O)[O-])ccc2F)cc1
inactive: dose: 100.0 mg/kg/injection, schedule: Q04DX002 (ip), vehicle: saline 93 % of control | dose: 200.0 mg/kg/injection, schedule: Q04DX002 (ip), vehicle: saline 108 % of control | dose: 400.0 mg/kg/injection, schedule: Q04DX002 (ip), vehicle: saline 90 % of control

CC(N)(CCCC(=O)O)C(=O)O (stereo not given)
inactive: dose: 176.0 mg/kg/injection, schedule: Q01DX001 (ip), vehicle: carboxymethylcellulose (CMC) 95 % of control | dose: 264.0 mg/kg/injection, schedule: Q01DX001 (ip), vehicle: carboxymethylcellulose (CMC) 100 % of control | [7] 95 % of control | dose: 600.0 mg/kg/injection, schedule: Q01DX001 (ip), vehicle: carboxymethylcellulose (CMC) 98 % of control

O=c1cc(COc2ccccc2Cl)[nH]c(=O)[nH]1
inactive: [4] 95 % of control | [5] 95 % of control | [6] 95 % of control

CN(C)c1nc(N)nc2c1ncn2C1OC(CO)CC1O (stereo not given)
inactive: dose: 100.0 mg/kg/injection, schedule: Q01DX001 (ip), vehicle: carboxymethylcellulose (CMC) 120 % of control | dose: 200.0 mg/kg/injection, schedule: Q01DX001 (ip), vehicle: carboxymethylcellulose (CMC) 98 % of control | [7] 101 % of control

C=CCc1c[nH]c(=O)[nH]c1=O
inactive: dose: 50.0 mg/kg/injection, schedule: Q04DX003 (ip), vehicle: Klucel (hydroxypropylcellulose) (HPC) 100 % of control | [8] 108 % of control and 91 % of control | [9] 97 % of control and 100 % of control | [10] 90 % of control

CCN(CC)N=Nc1ccccc1-c1nc(N)c2ccccc2n1
inactive: [8] 95 % of control | [9] 98 % of control

NC(=O)c1ccccc1I
inactive: dose: 75.0 mg/kg/injection, schedule: Q01DX001 (ip), vehicle: saline 101 % of control | [11] 103 % of control | dose: 150.0 mg/kg/injection, schedule: Q01DX001 (ip), vehicle: saline 96 % of control | [12] 86 % of control | dose: 300.0 mg/kg/injection, schedule: Q01DX001 (ip), vehicle: saline 96 % of control | [13] 100 % of control

CCOC(=O)c1cnc(SCc2ccccc2)nc1Nc1ccccc1Cl
inactive: [4] 94 % of control | [5] 88 % of control

CC1(C)C2CCC1(C)C(O)C2=O (stereo not given)
inactive: [11] 95 % of control | [12] 92 % of control | [13] 95 % of control

Cc1ccc(S(=O)(=O)N(Cc2cccc([N+](=O)[O-])c2)c2ccc(C(=O)O)cc2)cc1
inactive: [14] 91 % of control | [15] 98 % of control | [16] 102 % of control

c1ccc(-c2cc(-c3cc(-c4ccccc4)on3)no2)cc1
inactive: dose: 50.0 mg/kg/injection, schedule: Q04DX003 (ip), vehicle: saline with Tween-80 98 % of control | [4] 98 % of control | [5] 101 % of control

C/C(=C\Cl)CN(C)C
inactive: [4] 97 % of control | [5] 94 % of control

C(=N\c1oc(-c2ccccc2)nc1Sc1ccccc1)/c1ccccc1
inactive: [14] 92 % of control | [15] 100 % of control | [16] 96 % of control

N=C(N)c1ccc(OCCCOc2ccc(C(=N)N)cc2Br)c(Br)c1
inactive: dose: 6.25 mg/kg/injection, schedule: Q01DX009 (ip), vehicle: saline 100 % of control | dose: 6.25 mg/kg/injection, schedule: Q04DX003 (ip), vehicle: saline 99 % of control | dose: 12.5 mg/kg/injection, schedule: Q01DX009 (ip), vehicle: saline 115 % of control | dose: 12.5 mg/kg/injection, schedule: Q04DX003 (ip), vehicle: saline 99 % of control | dose: 16.5 mg/kg/injection, schedule: Q01DX009 (ip), vehicle: saline 123 % of control | dose: 18.0 mg/kg/injection, schedule: Q01DX Z (ip), vehicle: methylcellulose (MC) 110 % of control | dose: 25.0 mg/kg/injection, schedule: Q04DX003 (ip), vehicle: saline 92 % of control | dose: 27.0 mg/kg/injection, schedule: Q01DX Z (ip), vehicle: methylcellulose (MC) 113 % of control | dose: 37.5 mg/kg/injection, schedule: Q01DX009 (ip), vehicle: saline 107 % of control | dose: 40.0 mg/kg/injection, schedule: Q01DX Z (ip), vehicle: methylcellulose (MC) 103 % of control | dose: 60.0 mg/kg/injection, schedule: Q01DX Z (ip), vehicle: methylcellulose (MC) 113 % of control

Cc1ccc(/C(=C/c2ccc([N+](=O)[O-])cc2)C(=O)Nc2ccc(S(=O)(=O)F)cc2)cc1
inactive: dose: 100.0 mg/kg/injection, schedule: Q01DX009 (ip), vehicle: saline with Tween-80 94 % of control | dose: 200.0 mg/kg/injection, schedule: Q01DX009 (ip), vehicle: saline with Tween-80 89 % of control | dose: 400.0 mg/kg/injection, schedule: Q01DX009 (ip), vehicle: saline with Tween-80 86 % of control

CC1c2c(ccc3c2CCC=C3)CCC1CC1=CCCc2ccc3ccccc3c21 (stereo not given)
inactive: [17] 107 % of control | [8] 103 % of control | dose: 200.0 mg/kg/injection, schedule: Q01DX009 (ip), vehicle: saline 95 % of control | [9] 90 % of control | dose: 400.0 mg/kg/injection, schedule: Q01DX009 (ip), vehicle: saline 93 % of control | [10] 95 % of control

C=C(Br)CNC(=O)NN1CCOCC1
inactive: dose: 100.0 mg/kg/injection, schedule: Q01DX001 (ip), vehicle: Klucel (hydroxypropylcellulose) (HPC) 115 % of control | [8] 95 % of control | dose: 200.0 mg/kg/injection, schedule: Q01DX001 (ip), vehicle: Klucel (hydroxypropylcellulose) (HPC) 111 % of control | [9] 98 % of control | dose: 400.0 mg/kg/injection, schedule: Q01DX001 (ip), vehicle: Klucel (hydroxypropylcellulose) (HPC) 102 % of control | [10] 97 % of control

COc1cc(C2=C3C(=O)OCC3Cc3ccccc32)ccc1OCc1ccccc1 (stereo not given)
inactive: [1] 97 % of control | [2] 95 % of control | [3] 98 % of control

COc1cc2cc[n+](C)cc2cc1OC
inactive: dose: 50.0 mg/kg/injection, schedule: Q01DX009 (ip), vehicle: saline 111 % of control | [17] 108 % of control | dose: 100.0 mg/kg/injection, schedule: Q04DX003 (ip), vehicle: saline 104 % of control | dose: 200.0 mg/kg/injection, schedule: Q04DX003 (ip), vehicle: saline 107 % of control

C#CC(C)OCC(C)OC(C)=O (stereo not given)
inactive: dose: 25.0 mg/kg/injection, schedule: Q01DX009 (ip), vehicle: acetone 95 % of control | dose: 50.0 mg/kg/injection, schedule: Q01DX009 (ip), vehicle: acetone 94 % of control | dose: 100.0 mg/kg/injection, schedule: Q01DX009 (ip), vehicle: acetone 99 % of control | dose: 100.0 mg/kg/injection, schedule: Q04DX003 (ip), vehicle: acetone 100 % of control | [12] 115 % of control | dose: 225.0 mg/kg/injection, schedule: Q01DX009 (ip), vehicle: saline 95 % of control | dose: 335.0 mg/kg/injection, schedule: Q01DX009 (ip), vehicle: saline 93 % of control

c1ccc(-c2nc(Oc3ccc(Oc4nc(-c5ccccc5)nc(-c5ccccc5)n4)cc3)nc(-c3ccccc3)n2)cc1
inactive: dose: 25.6 mg/kg/injection, schedule: Q04DX002 (ip), vehicle: saline with Tween-80 91 % of control | dose: 64.0 mg/kg/injection, schedule: Q04DX002 (ip), vehicle: saline with Tween-80 97 % of control | dose: 160.0 mg/kg/injection, schedule: Q04DX002 (ip), vehicle: saline with Tween-80 87 % of control | [5] 86 % of control | dose: 400.0 mg/kg/injection, schedule: Q04DX002 (ip), vehicle: saline with Tween-80 97 % of control

NC(CSCC(N)=NCC1C2CC3CC(C2)CC1C3)=NCC1C2CC3CC(C2)CC1C3 (stereo not given)
inactive: [14] 96 % of control
